Series [1] addresses T1, chymotrypsin-like activity of purified rabbit muscle 20S proteasome (Oryctolagus cuniculus, UniProt G1T4Q9).
T1 sequence (G1T4Q9 1-263): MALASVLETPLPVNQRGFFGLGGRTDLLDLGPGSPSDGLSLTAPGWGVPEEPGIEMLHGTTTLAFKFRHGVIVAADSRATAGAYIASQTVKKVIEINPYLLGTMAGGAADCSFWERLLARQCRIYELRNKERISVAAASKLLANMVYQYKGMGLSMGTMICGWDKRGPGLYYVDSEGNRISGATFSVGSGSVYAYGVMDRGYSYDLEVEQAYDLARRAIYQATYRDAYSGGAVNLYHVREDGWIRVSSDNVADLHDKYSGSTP
In words: In vitro inhibition of 20S proteasome chymotrypsin-like activity (suc-LLVY-AMC).

Series [2] concerns the target T2, caspase-like activity of purified rabbit muscle 20S proteasome (Oryctolagus cuniculus, UniProt A0A5F9DQW2).
T2 sequence (A0A5F9DQW2 1-212): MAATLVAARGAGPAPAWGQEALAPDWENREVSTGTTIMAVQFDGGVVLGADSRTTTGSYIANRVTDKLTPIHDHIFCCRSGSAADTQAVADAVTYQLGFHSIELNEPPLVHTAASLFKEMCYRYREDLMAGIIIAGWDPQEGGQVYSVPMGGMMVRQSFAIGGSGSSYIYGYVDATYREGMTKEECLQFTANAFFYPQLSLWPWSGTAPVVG
Nature of the series: In vitro inhibition of 20S proteasome caspase-like activity (Z-LLE-AMC).

The next series deals with U266. Nature of the series: Cell growth inhibition (resazurin), U266. To be noted: for EC50: 48 hours drug exposure; for cytotoxicity against U266, in words: from EC50 values. Background: Resazurin is reduced to fluorescent resorufin, in cell work by metabolically active cells.
Another series deals with NF-κB. In words: NF-κB-mediated luciferase reporter gene assay, HEK293 NF-κB/Luc cells, TNF-α stimulation. In kind it is cell-based, human. As to conditions: for EC50: Homo sapiens; for effect on luciferase activity upon TNF-α stimulation, in words: pretreatment of NF-κB/Luc 293 cells. An outline of the steps: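 Cells seeded at 1.5×10^4/well in phenol-red free DMEM, pretreated 1 h with 8-point half-log compound dilutions (DMSO stocks), then stimulated with TNF-α (10 μl of 50 ng/ml solution) for 6 h. Luciferase read as RLU after 10 min with Steady Lite reagent at room temperature.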
(A reporter such as luciferase makes a cellular process visible.)

The next series has as its system RPMI 8226. Nature of the series: Cell growth inhibition (resazurin), RPMI 8226. To be noted: for EC50: Homo sapiens; for cytotoxicity against RPMI 8226, in words: from EC50 values.
The target of series [3] is T3, chymotrypsin-like activity of 20S proteasomes in PC-3 cells (Homo sapiens, UniProt P28074).
T3 construct: endogenous in cells; host or cells: PC-3 (ATCC CRL-1435)
In words: Chymotrypsin-like activity of 20S proteasomes in lysates of treated PC-3 cells. In kind it is cell-based. To be noted: PC-3, read-out: % inhibition of the chymotrypsin-like activity of 20S proteasomes in PC-3 cell lysates; 100 nM; 1 hr incubation. Here is the method: PC-3 (ATCC, CRL-1435), the human prostate cancer cell line, was cultured in F12K medium supplemented with 2 mM L-glutamine, 100 units/ml penicillin, 100 μg/ml streptomycin and 10% heat inactivated fetal bovine serum at 37° C., 5% CO2 and 95% humidified air. […] DMSO was used as the vehicle control at a final concentration of 0.1%. Following 1 hr incubation of PC-3 cells with the compounds, the cells were washed 3× with ice-cold 1× Dulbecco's Phosphate-Buffered Saline (DPBS, Mediatech, Herndon, Va.). […] Cell debris was pelleted by centrifugation at 14,000 rpm for 10 min, 4° C. and supernatants (=cell lysates) were transferred to a new tube. Protein concentration was determined by the BCA protein assay kit (Pierce Biotechnology, Rockford, Ill.). […] The released coumarin (AMC) was measured fluorometrically by using λex=390 nm and λem=460 nm. The assay was performed in a microtiter plate (Corning 3904) and followed kinetically with measurements every five minutes for 2 hr. The total amount of protein used for each assay was 20 μg. The final concentration of Suc-LLVY-AMC and DMSO was 20 μM and 0.2%, respectively. Results are presented as the percent inhibition of the 20S proteasome chymotrypsin-like activity relative to the DMSO control.

Series [4] addresses T4, trypsin-like activity of purified rabbit muscle 20S proteasome (Oryctolagus cuniculus, UniProt G1SWK8).
T4 sequence (G1SWK8 1-271): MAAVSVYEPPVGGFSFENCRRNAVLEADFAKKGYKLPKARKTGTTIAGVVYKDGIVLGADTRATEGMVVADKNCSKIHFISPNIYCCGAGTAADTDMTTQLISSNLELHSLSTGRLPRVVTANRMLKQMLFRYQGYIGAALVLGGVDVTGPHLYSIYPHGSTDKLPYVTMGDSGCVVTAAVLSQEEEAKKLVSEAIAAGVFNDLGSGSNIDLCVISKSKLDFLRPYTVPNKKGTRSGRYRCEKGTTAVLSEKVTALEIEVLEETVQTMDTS
In words: In vitro inhibition of 20S proteasome trypsin-like activity (Boc-LRR-AMC). As to conditions: under the conditions tested.

A further series concerns HL-60. Nature of the series: Cell growth inhibition (resazurin), HL-60. In kind it is cell-based, human. To be noted: from EC50 values.
Another series has as its system HL-60/MX2. Nature of the series: Cell growth inhibition (resazurin), multidrug resistant HL-60/MX2. As to conditions: from EC50 values. Here is the method:
Concentrations ranging from 6.32 μM to 2 nM were tested for II-2 and II-4.
HL-60/MX2 is a multidrug resistant tumor cell line derived from the human promyelocytic leukemia cell line, HL-60 and expresses reduced topoisomerase II activity. […] Mitoxantrone, the topoisomerase II targeting agent was included as a control.

The mark [5] stands for this setting: EC50 Chymotrypsin-like, Table 6, values in nM.
[6] abbreviates: Proteasome Chymotrypsin-like EC50, Table 12.
Where [7] appears, read: Proteasome Caspase-like EC50, Table 12.
The mark [8] stands for this setting: HEK293, read-out: NF-κB EC50, Table 12.
The mark [9] stands for this setting: RPMI-8226, read-out: Cytotoxicity RPMI EC50, Table 12.

The text below walks through data of US7544814B2, “[3.2.0] Heterocyclic compounds and methods of using the same” (Nereus Pharmaceuticals, Inc., priority 2004, dated 2009).

The EC50 is the concentration at which the effect is half-maximal. As usually defined, the inhibition is the change of the read-out against control, counted positive when it falls.

The structures appear in SMILES notation. Several values for one entry are separate records, joined by “and”; a condition that tells them apart may be missing. Equal values may be shown once. Read-outs that look alike come from different tables or passages of the source.

`C[C@H]1C(=O)N[C@@]2(C(O)[C@@H]3C=CCCC3)C(=O)O[C@@]12C` (single isomer, unassigned) [Formula II-20]: the concentration for a half-maximal effect (EC50) in series [1] (setting [5]) is 7.7 ± 3 nM; in series [1] (setting [6]), 7.7 ± 3 nM; in [2] (EC50 Caspase-like, Table 6, values in μM), 1.4 µM; in [2] (EC50 values, caspase-like activity, range in mixed units, summary of Table 6, range from nM to μM), 0.956 to 8.7 µM; in series [2] (setting [7]), 1.42 µM; in the series with U266 (Homo sapiens, U-266, 48 h, read-out: U266 EC50, Table 2) it was 310 nM. The EC50 in the series with U266 (read-out: U266 EC50, Table 2) came out at 442 nM; in the series with NF-κB (setting [8]) it was 849 ± 225 nM; with RPMI 8226 (RPMI-8226, 48 h, read-out: RPMI 8226 EC50, Table 2, 48 hours drug exposure, mean ± SD where n≥3), 8510 ± 3260 nM; in the series with RPMI 8226 (setting [9]), 8510 ± 3260 nM. Besides, the “cytotoxicity against U266, in words” value in the series with U266 is on record as “cytotoxic”. Moreover, the “effect on luciferase activity upon TNF-α stimulation, in words” value with NF-κB is reported as “dose-dependent decrease”. Besides, the “cytotoxicity against RPMI 8226, in words” value in the series on RPMI 8226 is “cytotoxic”. For the same compound, in series [3], the inhibition at 0.1 µM is 57%. In addition, in series [4], the “inhibition of the trypsin-like activity of the 20S proteasome, in words” value was “able to inhibit”.
As to `C[C@@]12OC(=O)[C@]1([C@@H](O)[C@@H]1C=CCCC1)NC(=O)[C@@H]2CCBr` [Formula II-18], the concentration giving a half-maximal response (EC50) in series [1] (setting [5]) was 2.3 nM; in series [1] (EC50 values, chymotrypsin-like activity, summary of Table 6), 2 to 11 nM; in [1] (setting [6]), 2.3 nM and 2 nM; in [2] (EC50 Caspase-like, Table 6, values in nM), 0.286 µM and 0.213 µM; in series [2] (EC50 values, caspase-like activity, summary of Table 6) it was 0.213 to 0.85 µM; in series [2] (setting [7]), 0.286 µM and 0.213 µM. Also, the concentration giving a half-maximal response (EC50) is 9 nM in the series with NF-κB (HEK293, read-out: EC50, NF-κB-mediated luciferase reporter gene assay, Table 5, values in nM, 1 hr pretreatment, TNF-α 6 hr); 11 nM in the series with NF-κB (setting [8]); 6.3 nM in the series with RPMI 8226 (setting [9]). Besides, the “cytotoxicity against U266, in words” value with U266 is “cytotoxic”. For the same compound, in the series with HL-60, the “cytotoxic activity against HL-60, in words” value is reported as “retained cytotoxic activity”. In the series on HL-60/MX2, the “cytotoxic activity against HL-60/MX2, in words” value is on record as “retained cytotoxic activity”. In the series on NF-κB, the “effect on luciferase activity upon TNF-α stimulation, in words” value is reported as “dose-dependent decrease”. Moreover, the “cytotoxicity against RPMI 8226, in words” value with RPMI 8226 was “cytotoxic”. Also, the “inhibition of the trypsin-like activity of the 20S proteasome, in words” value in series [4] is listed as “able to inhibit”.
